Test results taken from patent US9296741B2, “Bromodomain inhibitors” (priority 2012, dated 2016).

Key:
[1] = target: human BRD4 second bromodomain (BDII_E352-M457) (Homo sapiens (Human), UniProt O60885); assay: TR-FRET bromodomain binding assay, BRD4 second bromodomain
[2] = test system: breast cancer cell line MX-1; assay: MX-1 cell line proliferation assay; assay type: cell-based, human; settings: Homo sapiens, MX1, 72 h; MX-1 cells, 3-day proliferation, Cell Titer Glo; read-out: Cellular proliferation: EC50
[3] = target: human BRD4 first bromodomain (BDI_K57-E168) (Homo sapiens (Human), UniProt O60885); assay: TR-FRET bromodomain binding assay, BRD4 first bromodomain

Row | Compound | Ki [1] [nM] | EC50 [2] [nM] | Ki [3] [nM]
1 | Cn1cc(-c2cc(NS(C)(=O)=O)ccc2Oc2ccccc2C#N)c2cc[nH]c2c1=O [Example 25, N-[4-(2-cyanophenoxy)-3-(6-methyl-7-oxo-6,7-dihydro-1H-pyrrolo[2,3-c]pyridin-4-yl)phenyl]methanesulfonamide] | 3.6 | 56.2 | 3
2 | CN1CCC(NC(=O)c2ccc(Oc3ccc(F)cc3F)c(-c3cn(C)c(=O)c4[nH]ccc34)c2)C1=O (stereo not drawn) [Example 53, 4-(2,4-difluorophenoxy)-3-(6-methyl-7-oxo-6,7-dihydro-1H-pyrrolo[2,3-c]pyridin-4-yl)-N-(1-methyl-2-oxopyrrolidin-3-yl)benzamide] | 5.4 | 76.5 | 62.2
3 | COC(=O)c1cc2c(-c3ccccc3Oc3ccccc3)cn(C)c(=O)c2n1C [Example 68, methyl 1,6-dimethyl-7-oxo-4-(2-phenoxyphenyl)-6,7-dihydro-1H-pyrrolo[2,3-c]pyridine-2-carboxylate] | 2550 | 5900 | 1700
4 | CCNC(=O)c1cc2c(-c3cc(NS(C)(=O)=O)ccc3Oc3ccccc3)nn(C)c(=O)c2[nH]1 [Example 81, N-ethyl-6-methyl-4-{5-[(methylsulfonyl)amino]-2-phenoxyphenyl}-7-oxo-6,7-dihydro-1H-pyrrolo[2,3-d]pyridazine-2-carboxamide] | 0.99 | 103 | 9.5
5 | CCS(=O)(=O)Nc1ccc(Oc2ccc(C#N)cc2)c(-c2cn(C)c(=O)c3[nH]ccc23)c1 [Example 90, N-[4-(4-cyanophenoxy)-3-(6-methyl-7-oxo-6,7-dihydro-1H-pyrrolo[2,3-c]pyridin-4-yl)phenyl]ethanesulfonamide] | 6.8 | 16.8 | 4
6 | CCS(=O)(=O)Nc1ccc(OCc2cc(C)nn2C)c(-c2cn(C)c(=O)c3[nH]ccc23)c1 [Example 143, N-{4-[(1,3-dimethyl-1H-pyrazol-5-yl)methoxy]-3-(6-methyl-7-oxo-6,7-dihydro-1H-pyrrolo[2,3-c]pyridin-4-yl)phenyl}ethanesulfonamide] | 107 | 370 | 22.3
7 | Cn1cc(-c2cc(S(C)(=O)=O)ccc2OC2CCCC2)c2cc[nH]c2c1=O [Example 216, 4-[2-(cyclopentyloxy)-5-(methylsulfonyl)phenyl]-6-methyl-1,6-dihydro-7H-pyrrolo[2,3-c]pyridin-7-one] | 1.8 | 6.6 | 1.8
8 | Cn1cc(-c2cc(S(C)(=O)=O)ccc2OCCC2CC2)c2cc[nH]c2c1=O [Example 219, 4-[2-(2-cyclopropylethoxy)-5-(methylsulfonyl)phenyl]-6-methyl-1,6-dihydro-7H-pyrrolo[2,3-c]pyridin-7-one] | 2.9 | 17.7 | 3.6

More lines, in order of falling Ki [1], values ahead:

Row | Ki [1] [nM] | EC50 [2] [nM] | Ki [3] [nM] | Compound
9 | 381 | > 3000 | 47.4 | Cn1cc(-c2cc(NS(=O)(=O)CCF)ccc2Oc2ccc(C#N)cc2)c2cc[nH]c2c1=O [Example 113, N-[4-(4-cyanophenoxy)-3-(6-methyl-7-oxo-6,7-dihydro-1H-pyrrolo[2,3-c]pyridin-4-yl)phenyl]-2-fluoroethanesulfonamide]
10 | 29.7 | 290 | 65.8 | CCOC(=O)c1cc2c(-c3cc(N(CC)S(C)(=O)=O)ccc3Oc3ccccc3)nn(C)c(=O)c2[nH]1 [Example 76, ethyl 4-{5-[ethyl(methylsulfonyl)amino]-2-phenoxyphenyl}-6-methyl-7-oxo-6,7-dihydro-1H-pyrrolo[2,3-d]pyridazine-2-carboxylate]
11 | 2.1 | 25.2 | 1.6 | Cn1cc(-c2cc(NS(C)(=O)=O)ccc2Oc2ccccc2)c2cc(CO)[nH]c2c1=O [Example 89, N-{3-[2-(hydroxymethyl)-6-methyl-7-oxo-6,7-dihydro-1H-pyrrolo[2,3-c]pyridin-4-yl]-4-phenoxyphenyl}methanesulfonamide]
